Data on 3 molecules can be found in patent US12617792B2, “Purine derivative, intermediate and application thereof in preparing anticancer medicine” (SUZHOU RAYMON PHARMACEUTICALS COMPANY, LTD., priority 2019, dated 2026).

The target in the assay is T1, PI3K-alpha enzyme (Homo sapiens, UniProt P42336).
T1 construct: purchased Millipore 14-602
T1 sequence (P42336 whole entry): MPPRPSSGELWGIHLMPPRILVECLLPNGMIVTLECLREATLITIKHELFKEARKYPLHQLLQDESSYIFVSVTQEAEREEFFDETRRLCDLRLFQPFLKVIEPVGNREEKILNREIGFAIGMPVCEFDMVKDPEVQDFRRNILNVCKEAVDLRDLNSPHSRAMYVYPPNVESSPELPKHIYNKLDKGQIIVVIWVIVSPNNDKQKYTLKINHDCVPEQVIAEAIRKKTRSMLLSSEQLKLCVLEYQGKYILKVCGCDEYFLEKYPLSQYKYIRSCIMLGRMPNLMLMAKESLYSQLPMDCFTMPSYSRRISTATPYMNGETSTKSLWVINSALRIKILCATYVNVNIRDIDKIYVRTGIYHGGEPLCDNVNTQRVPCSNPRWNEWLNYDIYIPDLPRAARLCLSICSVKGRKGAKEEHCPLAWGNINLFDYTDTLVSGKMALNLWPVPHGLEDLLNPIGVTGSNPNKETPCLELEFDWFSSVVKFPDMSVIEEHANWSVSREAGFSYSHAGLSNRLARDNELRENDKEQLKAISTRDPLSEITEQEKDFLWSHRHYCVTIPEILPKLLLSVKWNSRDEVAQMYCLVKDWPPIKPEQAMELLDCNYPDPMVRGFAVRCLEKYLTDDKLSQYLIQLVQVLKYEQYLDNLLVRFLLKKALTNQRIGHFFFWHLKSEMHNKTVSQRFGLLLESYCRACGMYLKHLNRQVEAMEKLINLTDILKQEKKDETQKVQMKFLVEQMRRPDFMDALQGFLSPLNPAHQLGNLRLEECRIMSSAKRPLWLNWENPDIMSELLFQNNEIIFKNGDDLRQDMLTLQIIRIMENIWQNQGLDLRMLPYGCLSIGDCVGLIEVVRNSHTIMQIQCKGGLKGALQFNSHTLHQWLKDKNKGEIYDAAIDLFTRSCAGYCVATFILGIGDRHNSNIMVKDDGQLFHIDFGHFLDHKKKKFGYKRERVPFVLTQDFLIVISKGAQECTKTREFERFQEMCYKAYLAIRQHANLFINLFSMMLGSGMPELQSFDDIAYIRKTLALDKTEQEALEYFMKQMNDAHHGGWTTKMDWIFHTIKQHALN
T1 sequence (P27986 whole entry partner): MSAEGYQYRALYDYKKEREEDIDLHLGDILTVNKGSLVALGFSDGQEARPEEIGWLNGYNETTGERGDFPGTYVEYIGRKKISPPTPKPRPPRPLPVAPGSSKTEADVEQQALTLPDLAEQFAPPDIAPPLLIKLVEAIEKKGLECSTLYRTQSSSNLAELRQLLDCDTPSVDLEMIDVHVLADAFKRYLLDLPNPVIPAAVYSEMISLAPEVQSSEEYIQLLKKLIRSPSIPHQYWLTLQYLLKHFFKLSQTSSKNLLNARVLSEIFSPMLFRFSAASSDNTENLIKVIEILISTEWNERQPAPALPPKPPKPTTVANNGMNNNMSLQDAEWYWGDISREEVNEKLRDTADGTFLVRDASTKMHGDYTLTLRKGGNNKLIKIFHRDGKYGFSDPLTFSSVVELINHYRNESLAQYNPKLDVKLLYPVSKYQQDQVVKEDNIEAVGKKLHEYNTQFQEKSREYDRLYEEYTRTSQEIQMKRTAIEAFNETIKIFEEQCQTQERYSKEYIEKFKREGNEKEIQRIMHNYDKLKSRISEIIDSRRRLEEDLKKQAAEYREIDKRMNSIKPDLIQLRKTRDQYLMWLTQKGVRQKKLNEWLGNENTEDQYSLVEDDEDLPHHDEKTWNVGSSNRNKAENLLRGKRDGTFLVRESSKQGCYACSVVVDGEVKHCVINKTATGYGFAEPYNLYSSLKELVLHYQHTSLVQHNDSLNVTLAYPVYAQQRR
Kind of assay: PI3-Kinase (human) HTRF Assay kit, PI3K alpha enzyme IC50 determination. In kind it is biochemical. As to conditions: ATP 10 μM, PIP2 10 μM, 1% DMSO, double holes for each concentration, read-out: the half inhibitory concentrations (IC50) of the tested compounds on PI3K-alpha. On the procedure: Prepare fresh before each use. […] 1 μL of each was added to 24 μL 1× Reaction Buffer. 5 μL of each diluted solution was added into a 384-well plate and contained 1% DMSO. […] This working solution should be prepared with 0.1-0.2 ml more to meet the control usage and dead volume. […] In a 20 μL kinase reaction system, the concentration of ATP was 10 μM. For example, to prepare 2 ml ATP working solution, take 8 μL 10 mM ATP and add it to 1992 μL 1× reaction buffer.
For `O=C(Nc1ccc(CO)cc1)Nc1ccc(-c2nc(N3CCOCC3)c3[nH]cnc3n2)cc1` [RMP-D06, 1-(4-(hydroxymethyl)phenyl)-3-(4-(6-morpholino-7H-purin-2-yl)phenyl)urea], the IC50 was found to be 22.6 nM.

For the molecule `O=C(Nc1ccc(-c2nc(N3CCOCC3)c3[nH]cnc3n2)cc1)Nc1ccc(CO)c(C(F)(F)F)c1` [RMP-D07, 1-(4-(hydroxymethyl)-3-(trifluoromethyl)phenyl)-3-(4-(6-morpholino-7H-purin-2-yl)phenyl)urea], the IC50 was 215 nM.

As to `O=C(Nc1ccc(COCCN2CCOCC2)cc1)Nc1ccc(-c2nc(N3CCOCC3)c3[nH]cnc3n2)cc1` [RMP-D08, 1-(4-(6-morpholino-7H-purin-2-yl)phenyl)-3-(4-((2-morpholinoethoxy)methyl)phenyl)urea], the IC50 came out at 46.1 nM.
